The values that follow come from patent US20060005464A1, “Alkyl ethanolamine and biocide combination for hydrocarbon based fuels” (priority 2004, published 2006).

Assay type in all cases: cell-based
Experiment [1] relates to Pseudomonas Aeruginosa (ATCC27853). Kind of experiment: Microtiter plate growth of Pseudomonas Aeruginosa with amines and GROTAN. Particulars: for growth of Pseudomonas Aeruginosa (Table 1 entry): pH 8.5, 24 hours.
Experiment [2] concerns Pseudomonas aeruginosa (ATCC 10145). In words: Maximum growth slope of Pseudomonas aeruginosa with Proxel DB20 (BIT) plus alkanolamine. The conditions noted are these: pH 8.5, TSB, 24 hour.
Description: A culture of Pseudomonas aeruginosa (ATCC 10145) at pH=8.5 in TSB (trypticase soy broth) media was prepared. The biocide Proxel DB20 (20% suspension of benzoisothiazolone (BIT) in water), as sold by Avecia, was added at varying concentrations in combination with 1000 ppm or 2000 ppm of the alkanolamines N-butylaminoethanol (BAE), 2-amino-2-methyl-1-propanol (AMP), dibutylaminoethanol (DBAE) or n-octylaminoethanol (OAE). Optical density measurements were taken every 15 minutes over a 24 hour time period (total of 96 data points). The maximum growth slope was calculated by taking the 10 contiguous data points that result in the highest growth slope (units of OD per time) over a 24 hour period. Those 10 data points were subjected to a least squares linear fit to calculate the maximum growth slope.
In experiment [3] the test system is Mycobacterium smegmatis (ATCC # 19420). In words: End-point optical density of Mycobacterium smegmatis with N-alkyl alkanolamines (590 nm, 72 h). Particulars: 590 nm, after 72 hours, pH 8.5, tetrazolium dye.
The test system of experiment [4] is Aureobasidium pullulans (ATCC 12536). Kind of experiment: End-point optical density of Aureobasidium pullulans with MIT/CMIT plus alkanolamine. Particulars: SAB media pH 8.5. Here is the method: The impact of N-alkylalkanolamines on the control of the bacterial species Aureobasidium pullulans (ATCC 12536), a bacteria common in water-oil systems, was evaluated by measuring optical absorbance of samples treated with various concentrations of N-alkyl alkanolamines. […] SAB media at pH 8.5 (Tris buffer) was employed. Table 8 summarizes measurement of end-point optical density after 24 hours and 48 hours: […]

Experiment [5] has as its system Mycobacterium smegmatis (ATCC # 19420). In words: End-point optical density and MIC, Mycobacterium smegmatis (660 nm, 48 h). The conditions noted are these: for MIC (estimate of the concentration range in which the amine starts to inhibit growth): 48 hours; for end-point optical density: 660 nm, after 48 hours. Here is the method:
(§1) The impact of N-alkylalkanolamines on the control of the bacterial species Mycobacterium smegmatis (ATCC # 19420), a bacteria common in water-oil systems, was evaluated by measuring optical absorbance of samples treated with various alkyl ethanolaminesis DCHA=Dicyclohexylamine, OAE=Octylaminoethanol, ODEA=Octyldiethanolamine. Bacterial concentration was monitored indirectly via optical absorbance at 660 nm. The values reported are end-point optical densities in milliOD units after 48 hours. The media consisted of a standardized solution of clear nutrient broth (Middlebrook 7H10 with OADC supplement), amine, buffer (Tris) and water. The pH was adjusted initially to 8.5 with Tris buffer. The first column in the Table gives the amine concentration in ppm. The final two columns give data for cells that also contained 2 grams per liter of boric acid. In all cases, the values are averages of at least three replicates. The final row of the Table gives an estimate of the concentration range in which the amine in question starts to inhibit the growth of this bacterial species.

The test system of experiment [6] is Mycobacterium marinum (ATCC # 19420). Kind of experiment: End-point optical density and MIC, Mycobacterium marinum (660 nm, 72 h). The conditions noted are these: pH 8.5; for MIC (estimate of the concentration range in which the amine starts to inhibit growth): 72 hours; for end-point optical density: 660 nm, after 72 hours. Here is the method: as §1
The impact of the N-alkylalkanolamines of Example 6 on the control of the bacterial species Mycobacterium marinum (ATCC # 19420), bacteria common in water-oil systems, was evaluated as described above in Example 6. Bacterial concentration in the experimental media was monitored indirectly via optical absorbance at 660 nm. The values reported are end-point optical densities in milliOD units after 72 hours. The media consisted of a standardized solution of clear nutrient broth (Middlebrook 7H10 with OADC supplement), amine, buffer (Tris) and water. The pH was adjusted initially to 8.5 with Tris buffer. The first column in the Table gives the amine concentration in ppm. In all cases, the values are averages of at least three replicates. The final row of the Table gives an estimate of the concentration range in which the amine in question starts to inhibit the growth of this bacterial species.

The mark [7] stands for this setting: amine 2000 ppm plus GROTAN 100 ppm.
The mark [8] stands for this setting: amine 2000 ppm plus GROTAN 250 ppm.
[9] abbreviates: amine 2000 ppm plus GROTAN 500 ppm.
The mark [10] stands for this setting: amine 2000 ppm plus GROTAN 1000 ppm.
Where [11] appears, read: amine 2000 ppm plus GROTAN 2000 ppm.
[12] abbreviates: amine 4000 ppm plus GROTAN 100 ppm.
Setting [13] is: amine 4000 ppm plus GROTAN 250 ppm.
Where [14] appears, read: amine 4000 ppm plus GROTAN 500 ppm.
Setting [15] is: amine 4000 ppm plus GROTAN 1000 ppm.
The mark [16] stands for this setting: amine 4000 ppm plus GROTAN 2000 ppm.

On to `CCCCN(CCO)CCO` [BDEA, butyldiethanolamine], for which the “growth of Pseudomonas Aeruginosa (Table 1 entry)” value (from here on “growth of Pseudomonas Aeruginosa”) in experiment [1] (setting [7]) is 0.52; in experiment [1] (setting [8]), 0.72; in experiment [1] (setting [9]) it was 0.79; in experiment [1] (setting [10]), 0.32; in experiment [1] (setting [11]) it was 0.33; in experiment [1] (amine 2000 ppm, GROTAN 0 ppm), 0.67. In addition, the “growth of Pseudomonas Aeruginosa” value came to 0.67 in experiment [1] (setting [12]); 0.51 in experiment [1] (setting [13]); 0.30 in experiment [1] (setting [14]); 0.28 in experiment [1] (setting [15]); 0.33 in experiment [1] (setting [16]); 0.45 in experiment [1] (amine 4000 ppm, GROTAN 0 ppm). Further, in experiment [1] (conclusion from Table 1), the “enhancement in the biocidal effect of GROTAN” value is on record as “provide an enhancement in the biocidal effect of GROTAN®”.
Turning to `CCCCN(CCO)CCCC` [DBAE, dibutylaminoethanol], the maximum growth slope in experiment [2] (amine 1000 ppm plus BIT 150 ppm) is on record as 0.221 OD per time; in experiment [2] (amine 1000 ppm plus BIT 250 ppm) it was 0.255 OD per time; in experiment [2] (amine 1000 ppm plus BIT 500 ppm), 0.143 OD per time; in experiment [2] (amine 1000 ppm, BIT 0 ppm), 0.228 OD per time; in experiment [2] (amine 2000 ppm plus BIT 150 ppm) it was 0.084 OD per time; in experiment [2] (amine 2000 ppm plus BIT 250 ppm), 0.104 OD per time. Further, the maximum growth slope amounted to 0.000 OD per time in experiment [2] (amine 2000 ppm plus BIT 500 ppm) and 0.114 OD per time in experiment [2] (amine 2000 ppm, BIT 0 ppm). In addition, the end-point optical density came to 2000 milliOD in experiment [3] (amine 470 ppm); 2000 milliOD in experiment [3] (amine 940 ppm); 2000 milliOD in experiment [3] (amine 1880 ppm); 1900 milliOD in experiment [3] (amine 3750 ppm); 1200 milliOD in experiment [3] (amine 7500 ppm); 0.3 in experiment [4] (amine 1000 ppm plus 50 ppm MIT/CMIT, 24 hours). Besides, the end-point optical density in experiment [4] (amine 1000 ppm plus 50 ppm MIT/CMIT, 48 hours) turned out to be 0.4; in experiment [4] (amine 2000 ppm plus 50 ppm MIT/CMIT, 24 hours) it was 0.2; in experiment [4] (amine 2000 ppm plus 50 ppm MIT/CMIT, 48 hours), 0.2.
Consider `C1CCC(NC2CCCCC2)CC1` [DCHA, Dicyclohexylamine, reference compound], for which the “MIC (estimate of the concentration range in which the amine starts to inhibit growth)” value in experiment [5] (pH 8.5, no boric acid) was 1500-2000 ppm; in experiment [5] (with 2 grams per liter of boric acid), 1000-2000 ppm; in experiment [6] it was over 4000 ppm. The end-point optical density is 1.125 milliOD in experiment [5] (amine 500 ppm plus 2 grams per liter of boric acid); 1.02 milliOD in experiment [5] (amine 500 ppm, pH 8.5); 0.855 milliOD in experiment [5] (amine 1000 ppm plus 2 grams per liter of boric acid); 0.802 milliOD in experiment [5] (amine 1000 ppm, pH 8.5); 0.995 milliOD in experiment [5] (amine 1500 ppm, pH 8.5); 0.085 milliOD in experiment [5] (amine 2000 ppm plus 2 grams per liter of boric acid). Besides, the end-point optical density is 0.268 milliOD in experiment [5] (amine 2000 ppm, pH 8.5); 0.6 milliOD in experiment [6] (amine 400 ppm); 0.6 milliOD in experiment [6] (amine 800 ppm); 0.5 milliOD in experiment [6] (amine 1200 ppm); 0.4 milliOD in experiment [6] (amine 2000 ppm); 0.4 milliOD in experiment [6] (amine 4000 ppm).
With `CCCCCCCCN(CCO)CCO` [ODEA, Octyldiethanolamine], the “MIC (estimate of the concentration range in which the amine starts to inhibit growth)” value in experiment [5] (pH 8.5, no boric acid) was 500-1000 ppm; in experiment [6], 1200-2000 ppm. Further, the end-point optical density in experiment [5] (amine 500 ppm, pH 8.5) came to 0.847 milliOD; in experiment [5] (amine 1000 ppm, pH 8.5), 0.117 milliOD; in experiment [5] (amine 1500 ppm, pH 8.5), 0.260 milliOD; in experiment [5] (amine 2000 ppm, pH 8.5) it was 0.225 milliOD; in experiment [6] (amine 400 ppm), 0.6 milliOD; in experiment [6] (amine 800 ppm), 0.4 milliOD. Also, the figures for the end-point optical density in experiment [6] (amine 1200 ppm), in experiment [6] (amine 2000 ppm) and in experiment [6] (amine 4000 ppm) were 0.4 milliOD, 0.1 milliOD and 0 milliOD, respectively.
With `CC(C)(C)NCCO` [TBAE, tert-butylaminoethanol], the “growth of Pseudomonas Aeruginosa” value stood at 0.72 in experiment [1] (setting [7]); 0.69 in experiment [1] (setting [8]); 0.83 in experiment [1] (setting [9]); 0.30 in experiment [1] (setting [10]); 0.35 in experiment [1] (setting [11]); 0.67 in experiment [1] (amine 2000 ppm, GROTAN 0 ppm). For the same molecule, the “growth of Pseudomonas Aeruginosa” value in experiment [1] (setting [12]) worked out at 0.58; in experiment [1] (setting [13]), 0.59; in experiment [1] (setting [14]), 0.34; in experiment [1] (setting [15]), 0.28; in experiment [1] (setting [16]), 0.36; in experiment [1] (amine 4000 ppm, GROTAN 0 ppm) it was 0.55.
